The target in assay [1] is T1, B1R receptor of the rat (Rattus norvegicus, UniProt P97583).
T1 construct: host or cells: CHO K1 cells (Chinese hamster ovary), stably transfected
T1 sequence (P97583 1-337): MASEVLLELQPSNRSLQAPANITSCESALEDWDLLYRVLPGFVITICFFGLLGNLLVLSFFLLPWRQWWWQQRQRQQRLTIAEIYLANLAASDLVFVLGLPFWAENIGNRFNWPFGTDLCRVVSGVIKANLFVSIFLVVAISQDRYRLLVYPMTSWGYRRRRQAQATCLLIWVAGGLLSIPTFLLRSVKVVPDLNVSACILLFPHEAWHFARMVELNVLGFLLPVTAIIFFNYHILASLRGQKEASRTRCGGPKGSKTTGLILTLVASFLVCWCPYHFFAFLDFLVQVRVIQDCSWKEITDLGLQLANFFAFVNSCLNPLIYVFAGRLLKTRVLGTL
Nature of the assay: Functional study on the bradykinin receptor 1 (B1R), FLIPR Ca2+ assay, rB1R cells. Type of assay: cell-based. The settings on record: agonist Des-Arg9-bradykinin 100 nM, % inhibition compared with the maximum achievable inhibition; for inhibition at 10 µM: CHO-K1, test substance 10 μM, read-out: B1R Antagonism, rat [10 μM] % Inhibition. In short, it runs like this:
(§1)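 FLIPR Ca2+ read-out (Fluo-4, peak fluorescence) in stably transfected CHO K1 cells. Compounds at 10 μM, then 10 min later agonist challenge: human B1R with Lys-Des-Arg9-bradykinin 0.5 nM, rat B1R with Des-Arg9-bradykinin 100 nM; reported as % activation or % of maximal inhibition.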

The target in assay [2] is T2, human B1R receptor (Homo sapiens, UniProt P46663).
T2 construct: host or cells: CHO K1 cells (Chinese hamster ovary), stably transfected
T2 sequence (P46663 1-353): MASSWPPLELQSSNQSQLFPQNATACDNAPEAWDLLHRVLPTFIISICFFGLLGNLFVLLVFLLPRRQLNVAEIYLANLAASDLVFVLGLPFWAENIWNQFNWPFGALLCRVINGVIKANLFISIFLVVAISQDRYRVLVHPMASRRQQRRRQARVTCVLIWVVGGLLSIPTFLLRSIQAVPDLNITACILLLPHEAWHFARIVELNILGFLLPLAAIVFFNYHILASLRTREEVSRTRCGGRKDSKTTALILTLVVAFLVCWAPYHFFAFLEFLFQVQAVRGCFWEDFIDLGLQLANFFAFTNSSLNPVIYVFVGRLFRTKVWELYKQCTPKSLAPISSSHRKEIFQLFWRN
Nature of the assay: Functional study on the bradykinin receptor 1 (B1R), FLIPR Ca2+ assay, hB1R cells. Type of assay: cell-based. The settings on record: agonist Lys-Des-Arg9-bradykinin 0.5 nM, % inhibition compared with the maximum achievable inhibition; for inhibition at 10 µM: CHO-K1, test substance 10 μM, read-out: B1R Antagonism, human [10 μM] % Inhibition. In short, it runs like this:
as §1

On to `COc1cc(C)c(S(=O)(=O)N2CCCCC2COCC(=O)Nc2cc(-c3ccc(C)cc3)n[nH]2)c(C)c1` (centres unmarked) [Example 544, 2-((1-(4-methoxy-2,6-dimethylphenylsulfonyl)piperidin-2-yl)methoxy)-N-(3-p-tolyl-1H-pyrazol-5-yl)acetamide], for which the values for the inhibition at 10 µM in assay [1] and in assay [2] were 107% and 11.7%, respectively.

Regarding `O=C(COCC1CCCN1S(=O)(=O)c1c(Cl)cc(Cl)cc1Cl)N1CCC(N2CCOCC2)CC1` (centres unmarked) [Example 297, 1-(4-morpholinopiperidin-1-yl)-2-((1-(2,4,6-trichlorophenylsulfonyl)pyrrolidin-2-yl)methoxy)ethanone], the inhibition at 10 µM in assay [1] was 103%; in assay [2], 106%.

On to `Cc1cc(C)c(S(=O)(=O)N2CCCCC2COCC(=O)N2CCCCC2Cc2ncccc2C)c(C)c1` (centres unmarked) [Example 229, 2-((1-(mesitylsulfonyl)piperidin-2-yl)methoxy)-1-(2-((3-methylpyridin-2-yl)methyl)piperidin-1-yl)ethanone], for which the inhibition at 10 µM in assay [1] and in assay [2] was 101% each time.

Take `COc1cc(C)c(S(=O)(=O)N2CCCCC2COCC(=O)NC(CN(C)C)c2ccccc2)c(C)c1` (centres unmarked) [Example 261, N-(2-(dimethylamino)-1-phenylethyl)-2-((1-(4-methoxy-2,6-dimethylphenylsulfonyl)piperidin-2-yl)methoxy)acetamide]: the inhibition at 10 µM in assay [1] is 98.9%; in assay [2] it was 78.9%.

`COc1cc(C)c(S(=O)(=O)N2CCCCC2COCC(=O)Nc2ccc(CN3CCC(C)CC3)cc2)c(C)c1` (centres unmarked) [Example 421, 2-((1-(4-methoxy-2,6-dimethylphenylsulfonyl)piperidin-2-yl)methoxy)-N-(4-((4-methylpiperidin-1-yl)methyl)phenyl)acetamide]: the results for the inhibition at 10 µM in assay [1] and in assay [2] were 93.4% and 97.3%, respectively.

Take `COc1cc(C)c(S(=O)(=O)N2CCCC2COCC(=O)N(Cc2ccccc2)c2cc(C)ccn2)c(C)c1` (centres unmarked) [Example 463, N-benzyl-2-((1-(4-methoxy-2,6-dimethylphenylsulfonyl)pyrrolidin-2-yl)methoxy)-N-(4-methylpyridin-2-yl)acetamide]: the inhibition at 10 µM in assay [1] worked out at 101%; in assay [2], 97.4%.

For `COc1ccc(S(=O)(=O)N2CCCCC2COCC(=O)N2CCN(c3nc(CCc4ccccc4)cs3)CC2)cc1` (centres unmarked) [Example 220, 2-((1-(4-methoxyphenylsulfonyl)piperidin-2-yl)methoxy)-1-(4-(4-phenethylthiazol-2-yl)piperazin-1-yl)ethanone], the figures for the inhibition at 10 µM in assay [1] and in assay [2] were 86.3% and 15.3%, respectively.

As for `COc1cc(C)c(S(=O)(=O)N2CCCCC2COCC(=O)N2CCCC2c2ccc(N(C)C)cc2)c(C)c1` (centres unmarked) [Example 398, 1-(2-(4-(dimethylamino)phenyl)pyrrolidin-1-yl)-2-((1-(4-methoxy-2,6-dimethylphenylsulfonyl)piperidin-2-yl)methoxy)ethanone], the inhibition at 10 µM amounted to 98% in assay [1] and 59.8% in assay [2].

As for `COc1cc(C)c(S(=O)(=O)N2CCCCC2COCC(=O)N(C)CCc2ccncc2)c(C)c1` (centres unmarked) [Example 239, 2-((1-(4-methoxy-2,6-dimethylphenylsulfonyl)piperidin-2-yl)methoxy)-N-methyl-N-(2-(pyridin-4-yl)ethyl)acetamide], the inhibition at 10 µM stood at 99.7% in assay [1] and 94.7% in assay [2].

Consider “2-((1-(2,6-dichlorophenylsulfonyl)piperidin-2-yl)methoxy)-N-(2-(piperidin-1-yl)ethyl)acetamide [Example 440]”, for which, in assay [1] (test substance 10 μM, rB1R CHO K1 cells), the “B1R Antagonism, rat [10 μM] % Inhibition” value was 95.62%. For the same molecule, the “B1R Antagonism, human [10 μM] % Inhibition” value in assay [2] (test substance 10 μM, hB1R CHO K1 cells) was found to be 98.07%.

On to `Cc1cc(Br)cc(C)c1S(=O)(=O)N1CCCCC1COCC(=O)N1CCC(CCN2CCCC2)CC1` (centres unmarked) [Example 149, 2-((1-(4-bromo-2,6-dimethylphenylsulfonyl)piperidin-2-yl)methoxy)-1-(4-(2-(pyrrolidin-1-yl)ethyl)piperidin-1-yl)ethanone], for which the inhibition at 10 µM in assay [1] was 100%; in assay [2], 99.4%.

Turning to `O=C(COCC1CCCN1S(=O)(=O)c1c(Cl)cccc1Cl)NCC1CCCN(Cc2ccccc2)C1` (centres unmarked) [Example 323, N-((1-benzylpiperidin-3-yl)methyl)-2-((1-(2,6-dichlorophenylsulfonyl)pyrrolidin-2-yl)methoxy)acetamide], the inhibition at 10 µM in assay [1] was determined as 88.1%; in assay [2], 105%.

Consider `CCc1ccc(CC2CCCCN2C(=O)COCC2CCCCN2S(=O)(=O)c2c(C)cc(C)cc2C)nc1` (centres unmarked) [Example 228, 1-(2-((5-ethylpyridin-2-yl)methyl)piperidin-1-yl)-2-((1-(mesitylsulfonyl)piperidin-2-yl)methoxy)ethanone], for which the inhibition at 10 µM was found to be 99.8% in assay [1] and 88.6% in assay [2].

For `O=C(COCC1CCCCN1S(=O)(=O)c1c(Cl)cccc1Cl)N1CCN(c2ncc(Cl)cc2Cl)CC1` (centres unmarked) [Example 551, 2-((1-(2,6-dichlorophenylsulfonyl)piperidin-2-yl)methoxy)-1-(4-(3,5-dichloropyridin-2-yl)piperazin-1-yl)ethanone], the inhibition at 10 µM in assay [1] is 102%; in assay [2], 52.7%.

On to `CN1CCC(N2CCN(C(=O)COCC3CCCCN3S(=O)(=O)c3ccc(Cl)cc3Cl)CC2)CC1` (centres unmarked) [Example 120, 2-((1-(2,4-dichlorophenylsulfonyl)piperidin-2-yl)methoxy)-1-(4-(1-methylpiperidin-4-yl)piperazin-1-yl)ethanone], for which the inhibition at 10 µM in assay [1] and in assay [2] was 103% each time.

As to `COc1cc(C)c(S(=O)(=O)N2CCCCC2COCC(=O)NC(CN2CCN(C)CC2)c2ccccc2)c(C)c1` (centres unmarked) [Example 263, 2-((1-(4-methoxy-2,6-dimethylphenylsulfonyl)piperidin-2-yl)methoxy)-N-(2-(4-methylpiperazin-1-yl)-1-phenylethyl)acetamide], the figures for the inhibition at 10 µM in assay [1] and in assay [2] were 97.8% and 100%, respectively.

With `O=C(COCC1CCCCN1S(=O)(=O)c1c(Cl)cc(Cl)cc1Cl)N(C1CC1)C1CCN(Cc2ccccc2)CC1` (centres unmarked) [Example 255, N-(1-benzylpiperidin-4-yl)-N-cyclopropyl-2-((1-(2,4,6-trichlorophenylsulfonyl)piperidin-2-yl)methoxy)acetamide], the inhibition at 10 µM in assay [1] is 101%; in assay [2], 105%.

In the case of `CN1CCC(N2CCN(C(=O)COC[C@@H]3Cc4ccccc4CN3S(=O)(=O)c3ccc(Cl)cc3Cl)CC2)CC1` [Example 133, (S)-2-((2-(2,4-dichlorophenylsulfonyl)-1,2,3,4-tetrahydroisoquinolin-3-yl)methoxy)-1-(4-(1-methylpiperidin-4-yl)piperazin-1-yl)ethanone], the inhibition at 10 µM in assay [1] was 98.1%; in assay [2], 103%.

On to `Cc1cc(C)c(S(=O)(=O)N2CCCCC2COCC(=O)N2CCCC2Cc2ccccn2)c(C)c1` (centres unmarked) [Example 226, 2-((1-(mesitylsulfonyl)piperidin-2-yl)methoxy)-1-(2-(pyridin-2-ylmethyl)pyrrolidin-1-yl)ethanone], for which the inhibition at 10 µM came out at 96.9% in assay [1] and 76.4% in assay [2].

In the case of `CN(C)c1ccc(CNC(=O)COCC2CCCN2S(=O)(=O)c2c(Cl)cc(Cl)cc2Cl)cc1` (centres unmarked) [Example 575, N-(4-(dimethylamino)benzyl)-2-((1-(2,4,6-trichlorophenylsulfonyl)pyrrolidin-2-yl)methoxy)acetamide], the inhibition at 10 µM in assay [1] was found to be 96.8%; in assay [2] it was 23.4%.

For `COc1cc(C)c(S(=O)(=O)N2CCCCC2COCC(=O)N(C2CC2)C2CCN(Cc3ccccc3)CC2)c(C)c1` (centres unmarked) [Example 342, N-(1-benzylpiperidin-4-yl)-N-cyclopropyl-2-((1-(4-methoxy-2,6-dimethylphenylsulfonyl)piperidin-2-yl)methoxy)acetamide], the inhibition at 10 µM was determined as 100% in assay [1] and 104% in assay [2].

Turning to `COc1cc(C)c(S(=O)(=O)N2CCCCC2COCC(=O)Nc2cccc(CN3CCCCC3)c2)c(C)c1` (centres unmarked) [Example 418, 2-((1-(4-methoxy-2,6-dimethylphenylsulfonyl)piperidin-2-yl)methoxy)-N-(3-(piperidin-1-ylmethyl)phenyl)acetamide], the inhibition at 10 µM was found to be 104% in assay [1] and 101% in assay [2].

The inhibition is the change of the read-out against control, counted positive when it falls.

For the origin of these results see patent US8435978B2, “Substituted sulfonamide compounds” (Gruenenthal GmbH, priority 2006, dated 2013).
